Read-outs that look alike come from different tables or passages of the source.
Legend:
[1] = test system: ornithine decarboxylase (ODC); conditions: cited from earlier work
[2] = test system: DFMO-Induced Thrombocytopenia; conditions: rat, in vivo
Description: (§1) Central venous catheters were inserted into Fisher 344 male rats. […] This concentration is equimolar to the arginine concentration in 10% Travasol. After 12 days of infusion the rats were sacrificed and platelet counts were determined in peripheral blood.

[3] = Toxicity of continuous i.v. DFMO infusion for 12 days in tumor-bearing and non-tumor-bearing rats; type: in vivo, rat
From the text: FIG. 3. […] Bars indicate standard deviation.
In the above described rat model, a continuous infusion of DFMO was given through a central venous catheter.

[4] = human, in vivo
From the text: FIG. 4. Platelet counts plotted against days of continuous i.v. DFMO infusion in patients with advanced colorectal carcinoma. […] The paired points are connected by a straight line.
There was no incidence of nausea, vomiting or diarrhea.

[5] = in words; tumor and RBC
Description: After obtaining the blood sample by venipuncture, or some other suitable means, blood hematocrit is determined and the blood is centrifuged for 10 minutes at 500 g. The plasma is removed for albumin determination and the remaining cells are washed with an equal volume of cold 0.9% NaCl and centrifuged at 200 g for 15 minutes. The buffy coat is then carefully aspirated along with the supernatant and discarded. After thoroughly mixing the packed RBC, a 1.0 ml aliquot is extracted for polyamine analysis. While shaking continuously with a Vortex mixer, 2.5 ml of freshly prepared 6% trichloroacetic acid (TCA) is added followed by 60 ul of 100% TCA. This is done to avoid insufficient mixing if 100% TCA is added directly to RBC. The samples are mixed thoroughly for a minimum of 3 minutes and frozen at -70° C. if further extraction steps are performed. The samples are thawed and centrifuged at 200×g for 15 minutes. The supernatant is then transferred to tubes containing 40 ul of concentrated HCl. The samples are washed twice with anhydrous ether and dried. The pellets are dissolved in 100 ul of 0.5 N HCl and centrifuged at 200 g. The clear supernatant is then analyzed for polyamines using, for example, a Durrum D-500 amino acid analyzer.
A methylcholanthrene-induced fibrosarcoma (0.17 g) was implanted as a brei into the right flank under anesthesia and the animals were fed a chow diet for 21 days. […]

[6] = RBC putrescine in tumor-bearing versus non tumor-bearing rats infused with feeding solutions; conditions: NTB rats; p<0.05
From the text: A methylcholanthrene-induced fibrosarcoma (0.17 g) was implanted as a brei into the right flank under anesthesia and the animals were fed a chow diet for 21 days. When the tumors were at least 1.0 cm in width, two-dimensional measurements with calipers were instituted and the equation, length (cm)×(width [cm])^2 ×1/2=grams of tumor tissue, was used to estimate tumor weight. […] The animals were then allowed to recover overnight and continuous infusions were started the next morning. […] After 6 days of continuous infusion, the animals were sacrificed by aortic bleeding. Liver and tumor were excised and weighed and kept frozen at -70° C. until assays were done. Only viable, nonnecrotic tumor tissue was saved and assayed.

[7] = test system: DFMO-Induced Thrombocytopenia; test: Influence of ornithine co-administration on DFMO-induced thrombocytopenia in the rat; conditions: in words
Description: as §1

NCCCC(N)(C(=O)O)C(F)F (stereo not shown) [DFMO, Difluoromethylornithine]
ODC inhibition mode [1]: irreversible inhibitor of ODC | effect on platelet suppression / platelet count [2]: significant decrease in platelet count as compared with the saline treatment | small intestinal mucosa histology ([3]; rat, in vivo): histological evidence of small intestinal mucosal atrophy | white cell count and hematocrit changes ([3]; rat, in vivo): not significantly altered | clinical toxicity ([3]; rats, 12 day study): no significant clinical toxicity | decreased hearing acuity, patients [4]: two | hematocrit [4]: Significant suppression of the hematocrit was also noted with a trend toward dose related suppression | nausea, vomiting or diarrhea [4]: no incidence | platelet suppression, 8 g dose compared with 6 g dose [4]: significantly greater platelet at the 8 g dose as compared with the 6 g dose | time to resolution of all toxicities after discontinuing infusion [4]: two | white cell count [4]: not affected by either dose | tumor growth (MCA sarcoma; MCA sarcoma): reduces the growth rate of an MCA sarcoma but does not produce tumor regression | effect on peripheral platelet counts (MCA sarcoma; rat, in vivo): without suppressing peripheral platelet counts

N=C(N)NCCC[C@H](N)C(=O)O [arginine]
comparison of ornithine and arginine for increase in polyamine levels [5]: both appeared to promote an increase in tumor-related levels | increase in RBC putrescine levels versus chow or essential amino acids only [6]: significantly greater (p<0.05) than those receiving chow or essential amino acids only

NCCC[C@H](N)C(=O)O [ornithine]
effect on platelet suppression / platelet count [7]: significant reversal in the platelet suppression
